Measurements from patent US5164414A, “Use of N-myristoyl-(S)-phenylalanine for the treatment of diseases involving myristoylation” (Adir Et Compagnie, priority 1990, dated 1992).
pIC50: −log10 of the molar value. Entries after “also recorded” stand apart in the source; their conditions may differ.

How the values were obtained:
[1] = target: T1, N-myristoyltransferase (NMT) (Mus musculus, UniProt O70310); assay: Inhibition of N-myristoyltransferase (NMT) solubilized from L 1210 microsomes, in competition with peptide substrate G8R; format: biochemical, murine (L 1210); conditions: for pIC50: NMT from L 1210 microsomes, peptide substrate G8R, 10 min at 37° C.
T1 construct: The supernatant comprises the whole of the NMT activity present in the L 1210 microsomes; endogenous in cells; host or cells: L 1210 murine leukemia cells; Triton 770-solubilized microsomes (105,000 g supernatant)
T1 sequence (O70310 1-496): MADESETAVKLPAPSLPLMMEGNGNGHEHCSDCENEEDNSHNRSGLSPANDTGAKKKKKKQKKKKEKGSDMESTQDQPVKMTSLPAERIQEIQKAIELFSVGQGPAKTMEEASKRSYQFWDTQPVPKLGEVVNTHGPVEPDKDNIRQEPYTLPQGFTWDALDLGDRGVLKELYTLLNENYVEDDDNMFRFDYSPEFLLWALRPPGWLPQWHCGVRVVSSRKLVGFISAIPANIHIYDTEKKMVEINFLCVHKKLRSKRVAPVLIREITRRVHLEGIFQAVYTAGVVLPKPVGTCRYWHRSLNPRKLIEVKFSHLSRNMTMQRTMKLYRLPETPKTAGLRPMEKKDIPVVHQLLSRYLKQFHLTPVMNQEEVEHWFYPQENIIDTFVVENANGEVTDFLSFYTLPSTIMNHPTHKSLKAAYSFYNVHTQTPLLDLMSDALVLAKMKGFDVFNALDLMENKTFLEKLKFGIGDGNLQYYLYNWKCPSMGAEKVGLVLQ
Procedure: Leukemic cells of murine origin (L 1210) are cultured in 500- to 1000-ml roller bottles in a medium comprising: RPMI 1640 medium (Gibco); 10% fetal calf serum; 50 units/ml of penicillin; 50 μM streptomycin; 2 mM glutamine; and 10 mM HEPES (Gibco). The cells grow with continuous agitation at 37° C. in an atmosphere of 5% CO2 /95% air. The cells are collected and washed. The final pellet, typically containing 2.5×10^11 cells is resuspended in a lysis buffer [50 mM Tris, pH 7.9; 1 mM DTT; 1 mM EDTA; and 250 mM sucrose]. The cells are lysed and homogenized. The microsomes (vesiculated endoplasmic reticulum) are collected by centrifugation at 105,000 g as a pellet.
NMT is a membrane enzyme. To solubilize this enzyme, this suspension is then diluted to 2/3 in a solubilization buffer [50 mM HEPES, pH 7.5, 1 mM EDTA, 1 mM DTT, 10% glycerol and 3% Triton 770] and maintained for 30 min at 4° C. with stirring. This suspension is then centrifuged again at 105,000 g for 75 min. The material insoluble in the detergent sediments as a pellet. The supernatant comprises the whole of the NMT activity present in the L 1210 microsomes.
The compounds are then tested on the supernatant in competition with the peptide substrate Gly-Asn-(Ala)4 -(Arg)2 ("G8R") according to the conditions which follow, as described by TOWLER et al. (PNAS, (1987), 84, 2708-2711). Myristoylcoenzyme A is synthesized enzymatically immediately before use by incubation of myristate with ATP, Coenzyme A (lithium salt) and Pseudomonas Acyl-Coa synthetase (20 min at 30° C.). The peptide substrate and the biological source as obtained above are then added. The mixture is incubated for 10 min at 37° C.; the reaction is then stopped with 110 μl of methanol and 10 μl of trichloroacetic acid. The medium is left at 4° C. for 10 min and then centrifuged at 10,000 g for 5 min. An aliquot (30 μl) of the final supernatant is injected into an HPLC system equipped with a μBondapak column (Waters) and developed with a linear gradient as described by Towler et al. (PNAS, (1987), 84, 2708-11). Detection of the acylated peptide is performed using a radioactive line detector (Berthold) by means of the addition of 5 ml/min of scintillation fluid (Zinsser). The acylated peptide is eluted at 85% acetonitrile-TFA/15% H20-TFA.
The compounds tested as inhibitors are suspended in a 0.1% solution of Triton 770 after a brief sonication in the cold state. 10 μl of the solution of inhibitor are added to the reaction medium. The experimental conditions are identical to those described above. The activity of the compound is evaluated on the basis of the decrease in control activity, incubated under the same conditions but in the presence of the solution of suspension.

L 1210 cells = assay: Cytotoxicity, colorimetric test (ALLEY et al.), L 1210; format: cell-based, mouse; conditions: for pIC50: Mus musculus, L1210, concentration inhibiting 50% of cell growth, 9 concentrations
Procedure: (§1) The cytotoxicity of the compounds is assessed using the calorimetric test described by ALLEY et al. (Cancer Res., (1988) 48, 589-601). This automated test is routinely used on 2 cell lines: L 1210 (mouse leukemia) and HL 60 (human promyelocyte). On each of these lines, the cytotoxicity is assessed using 9 concentrations of the compounds. The IC50 is the concentration inhibiting 50% of cell growth.

HL 60 cells = assay: Cytotoxicity, colorimetric test (ALLEY et al.), HL 60; format: cell-based, human; conditions: for pIC50: Homo sapiens, HL-60, concentration inhibiting 50% of cell growth, 9 concentrations
Procedure: as §1

[2] = compared with N-myristoylglycine

Row | pIC50 [1] | activity greater than that measured for N-myristoylglycine ([1]; ratio of IC50 versus N-myristoylglycine) | Structure (SMILES) | inhibition of NMT activity (in words) ([1]; enzyme extracted from L 1210 cells) | pIC50 (L 1210 cells) | cytotoxicity on L 1210 cells (in words) (L 1210 cells; [2]) | pIC50 (HL 60 cells) | cytotoxicity on HL 60 cells (in words) (HL 60 cells; [2])
1 | 3.70 | 15 -fold | CCCCCCCCCCCCCC(=O)N[C@@H](Cc1ccccc1)C(=O)O [N-myristoyl-(S)-phenylalanine] | strongly inhibits its activity; also recorded: markedly greater inhibition of the activity of this enzyme than the use of compounds described in the prior art | 4.53 | markedly greater than that due to N-myristoylglycine; also recorded: markedly greater cytotoxicity than N-myristoylglycine | 4.89 | markedly greater than that due to N-myristoylglycine; also recorded: markedly greater cytotoxicity than N-myristoylglycine
2 | 2.52 | – | CCCCCCCCCCCCCC(=O)NCC(=O)O [N-myristoylglycine, reference compound] | – | 4.32 | – | 4.69 | –
